# In paper PMC4618141, “Use of In Vitro and Predictive In Silico Models to Study the Inhibition of Cytochrome P4503A by Stilbenes” (PLoS ONE, 2015):
# Target: CYP3A4 (Homo sapiens, UniProt P08684)
# Test: inhibition of testosterone metabolism in Caco-2/TC7 cells (HPLC)
# Sequence of CYP3A4 (P08684 2-503): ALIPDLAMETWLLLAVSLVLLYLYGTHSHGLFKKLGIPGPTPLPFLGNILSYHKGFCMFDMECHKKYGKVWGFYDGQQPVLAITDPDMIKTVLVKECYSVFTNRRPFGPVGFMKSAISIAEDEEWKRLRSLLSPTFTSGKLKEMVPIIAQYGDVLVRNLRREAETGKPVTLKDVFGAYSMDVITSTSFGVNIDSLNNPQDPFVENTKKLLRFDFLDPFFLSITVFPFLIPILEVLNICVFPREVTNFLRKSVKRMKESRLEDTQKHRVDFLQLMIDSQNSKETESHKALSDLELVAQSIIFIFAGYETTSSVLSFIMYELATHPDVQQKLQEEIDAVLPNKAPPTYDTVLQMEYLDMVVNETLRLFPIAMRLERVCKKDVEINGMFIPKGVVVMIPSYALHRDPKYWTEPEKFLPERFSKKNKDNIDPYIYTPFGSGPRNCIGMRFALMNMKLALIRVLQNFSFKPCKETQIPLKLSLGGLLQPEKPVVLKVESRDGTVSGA
smiles,measurement,value
"Oc1ccc(/C=C/c2cc(O)cc(O)c2)cc1 [Resveratrol, trans-3,4′,5-trihydroxystilbene]",IC50,< 10 µM
